Experimental data from patent US20030180375A1, “Use of xenon for treating neurointoxications” (AGA AB, priority 1999, published 2003).

Assays:
[1] = tested on: PC12 cells; assay: Dopamine release of differentiated PC12 cells under stress conditions (N2 hypoxia, glutamate), Example 2; format: cell-based, rats; design: dopamine release: dose or concentration left out as unconfirmed; conditions: FIG. 2
Text: The differentiated PC12 cells described in Example 1 were distributed to various vessels and exposed to differing conditions. These conditions are defined as follows: […]
The dopamine release may even be increased if, in addition to the nitrogen atmosphere, glutamate, which represents a neurotransmitter and has a neurotoxic effect in greater doses, was given as well (group: Glu+N2).
Thus, the addition of glutamate to the cells effects an increased dopamine release, particularly when the cells are kept under hypoxic conditions.

[2] = tested on: PC12 cells; assay: Dopamine release of differentiated PC12 cells in a hypoxic situation (helium instead of oxygen), Example 1; format: cell-based, rats
Text: An in vitro experiment with PC12 cells is concerned. These PC12 cells are dependants of a pheochromocytoma of rats. […] PC12 cells can be reproduced continuously in vitro. Following the addition of “nerve growth factor”, they start differentiating and become neurons which in many respects have the property of in vivo neurons, particularly the properties which relate to the neurotransmitter release. PC12 cells are acknowledged as neuronal model.
PC12 cells differentiated in such a manner when exposed to a hypoxic situation, release dopamine. […] If the cells are treated under these hypoxic conditions with xenon in defined concentrations over the same period of time, the neurotransmitter release will be dropped. […] If a hypoxic situation is triggered by a dose of helium instead of oxygen, the curve of the dopamine concentration will result as shown in the curve produced from the solid triangles. A maximum dopamine concentration is shown in this case after about 40 minutes. […] In the above-described experiment, the gases used were given to the cells by mixing them with the growth buffer for the cells. In this case, saturated gas buffer solutions are involved.

Which results are given for `[Xe]` [xenon]?
dopamine release compared to the corresponding (glutamate+N2) experiment ([1]; Glu+Xe: 10 M glutamate for 30 minutes of incubation in xenon): reduced by two-thirds; dopamine release ([1]; Glu+Xe: glutamate for 30 minutes of incubation in xenon): slightly increased dopamine release; unintentional neurotransmitter release ([1]; simultaneous supply of xenon, glutamate and/or hypoxic conditions): reduced many times over; reversibility of the xenon effect ([2]; after the xenon is washed out, cells cannot be distinguished from untreated cells): fully reversible; dopamine concentration over the time course ([2]; xenon given in a hypoxic situation, saturated gas buffer solution, compared with non-stressed controls, FIG. 1A): virtually no longer differ from the control cell population; relative dopamine concentration (dopamine release) ([2]; xenon in a hypoxic situation, compared with control cells, FIG. 1B): reduced down to values of the control cells
